Experimental data as given in US12516019B2, “Amphoteric compounds” (Eastman Chemical Company, priority 2015, dated 2026).

How the values were obtained:
Format in all cases: physicochemical
[1] = Water solubility: heated to a clear solution, cooled to ambient temperature; details: ambient temperature after heating to a clear solution
Protocol: To a vial was added 5.00 g of 3-((lauryloxycarbonylpropyl)-dimethylammonio)propanesulfonate and 10.00 g of water. The mixture was heated to 100° C. for an hour to afford a clear solution. The mixture was then allowed to cool to ambient temperature, at which point it was still homogeneous with no precipitate or gel.
To a vial was added 5.00 g of 3-((lauryloxycarbonylmethyl)-dimethylammonio)propanesulfonate and 45.00 g of water. The mixture was heated to 100° C. for an hour to afford a clear solution. The mixture was then allowed to cool to ambient temperature resulting in a white solid. The solid was recovered by filtration and dried in a vacuum oven at 55° C. in vacuo with a nitrogen sweep overnight to afford 4.58 g of 3-((lauryloxycarbonylmethyl)-dimethylammonio)propanesulfonate.
To a vial was added 10.00 g of 3-((4-laurylamino-4-oxobutyl)-dimethylammonio)propanesulfonate and 20.00 g of water. The mixture was heated to 100° C. for an hour to afford a clear solution. The mixture was then allowed to cool to ambient temperature, at which point it was still homogeneous with no precipitate or gel.
The solubility of 3-((2-laurylamino-2-oxoethyl)dimethylammonio)-propanesulfonate was determined by mixing 5.00 g of material with 45.00 g of water and heating to 85° C. for 1 h to afford a clear 10 wt % solution. The material was allowed to cool to ambient temperature to afford a precipitate. The precipitate was filtered, and the resulting solid was dried in vacuo at 50° C. with a nitrogen sweep for 3 days to afford 4.54 g of recovered 3-((2-laurylamino-2-oxoethyl)dimethylammonio)propanesulfonate.

[2] = Foam height test, Standard Test Method for Foaming Properties of Surface-Active Agents (ASTM 1173-07); details: 49° C.; for Foam height at time t = 0: t = 0 min; for Foam height at time t = 1: t = 1 min; for Foam height at time t = 2: t = 2 min; for Foam height at time t = 3: t = 3 min; for Foam height at time t = 4: t = 4 min; for Foam height at time t = 5: t = 5 min
Text: The Standard Test Method for Foaming Properties of Surface-Active Agents (ASTM 1173-07) for 0.1 wt % and 1.0 wt % was used to determine the foaming properties of the amphoteric compounds of the formula 1 described herein. This method generates foam under low-agitation conditions and is generally used for moderate- and high-foam surfactants. This test gathers data on initial foam height and foam decay. Foam decay provides information on foam stability.
The apparatus for carrying out this test includes a jacketed column and a pipet. The jacketed column serves as a receiver, while the pipet delivers the surface-active solution.
Solutions of each surface-active agent to be measured were prepared in borosilicate glass jars a day ahead of time, using ambient temperature ingredients, and were slowly rolled overnight to homogenize. The solutions were then removed from the rollers and equilibrated in a constant temperature bath (49° C.+/−1° C.) for at least 1 hour before measurement. The solution of the amphoteric compound to be tested was added to the receiver (50 mL) and to the pipet (200 mL). The pipet was positioned above the receiver and opened. As the solution fell and made contact with the solution in the receiver, foam was generated. When the pipet was empty, the time was noted and an initial foam height was recorded. The foam height was recorded each minute for five minutes. Exact size specifications for the glassware can be found in ASTM 1173-07. The foam height results for each amphoteric compound 1 and representative standards are listed below in Tables 1 (0.1% concentration) and 2 (1% concentration).

[3] = Critical micelle concentration from surface tension (Wilhelmy plate, K100C Tensiometer); details: deionized water, ambient temperature
Protocol: The critical micelle concentration (CMC) is an important characteristic of a surfactant, and the CMC values were determined for the amphoteric compounds of formula 1. The CMC is defined as the concentration at which micelle formation first begins, and for surface tension determination of CMC, is typically assigned as the concentration of the intersection of two straight lines through the data, where the first line is the linear portion of the initial decline in surface tension with increasing surfactant concentration, and the second is the line of constant surface tension.
The critical micelle concentration was determined from plots of surface tension as a function of the logarithm of active surfactant concentration. Surface tension was measured via the Wilhelmy plate technique. In this method, the downward force of a rigorously clean plate probe that just contacts the liquid surface of the test sample is measured, and the surface tension is calculated from knowledge of the contact angle the liquid makes with the probe surface and the length of the probe plate.
A K100C Tensiometer (Kruss GmbH) was used to measure surface tension of solutions in a glass sample vessel. All measurements were made under ambient temperature conditions.
The tensiometer was equipped with a computer-controlled microdispensing and aspirating system to automate surfactant concentration adjustments of the test solution while maintaining constant solution volume between successive measurements. A roughened platinum plate probe was used. Cleanliness of probe, sample vessel, and microdispensing system was verified after cleaning between samples by measuring the surface tension of pure deionized water run through the system as a control.
100 mL of the 1 mg/L surfactant solution was added to the clean sample vessel and placed in the instrument. The plate probe was rinsed with deionized water and flame treated to combust off residual organic impurities, then mounted in position in the tensiometer. The experiment was initiated and run through the LabDesk version 3.2.2 (Kruss GmbH) software.
The surface tension measurements were run sequentially (and automatically) from most dilute to most concentrated by incrementally injecting known volume aliquots of the 10,000 mg/L surfactant solution into the sample, homogenizing the sample after injection by stirring for 30 seconds via a magnetic stir bar in the solution, and then aspirating out equal volume that was added to the sample vessel to keep the total sample volume constant for each measurement.
The sample vessel was then automatically moved into measurement position, and the surface tension measurement was made and recorded. This sequence was repeated until all concentrations had been measured.
The active surfactant concentration range spanned from 1 mg/L to 5000 mg/L over 50 concentration increments, equally spaced on a logarithmic scale over the full range of concentrations measured.
The sample at each concentration was measured 10 times, and the average of the 10 measures was plotted against the logarithm of the surfactant concentration.
After completing the full range of concentrations, the software provided best-fit lines to estimate CMC, and these regression lines were manually adjusted as needed to give the broadest range of linear behavior for each line.

Row | Molecule | solubility in water [1] | Foam height at time t = 0 ([2]; 1 g/L (0.1 weight %)) | Foam height at time t = 1 ([2]; 1 g/L (0.1 weight %)) | Foam height at time t = 2 ([2]; 1 g/L (0.1 weight %)) | Foam height at time t = 3 ([2]; 1 g/L (0.1 weight %)) | Foam height at time t = 4 ([2]; 1 g/L (0.1 weight %)) | Foam height at time t = 5 ([2]; 1 g/L (0.1 weight %)) | Foam height at time t = 0 ([2]; 10 g/L (1.0 weight %)) | Foam height at time t = 1 ([2]; 10 g/L (1.0 weight %)) | Foam height at time t = 2 ([2]; 10 g/L (1.0 weight %)) | Foam height at time t = 3 ([2]; 10 g/L (1.0 weight %)) | Foam height at time t = 4 ([2]; 10 g/L (1.0 weight %)) | Foam height at time t = 5 ([2]; 10 g/L (1.0 weight %)) | Critical micelle concentration (CMC) [3]
1 | CCCCCCCCCCCCOC(=O)C[N+](C)(C)CCCS(=O)(=O)[O-] [Comparative Example 2, 3-((Lauryloxycarbonylmethyl)dimethylammonio)-propanesulfonate, reference compound] | 0.92 wt % | – | – | – | – | – | – | – | – | – | – | – | – | –
2 | CCCCCCCCCCCCNC(=O)C[N+](C)(C)CCCS(=O)(=O)[O-] [Comparative Example 4, 3-((2-Laurylamino-2-oxoethyl)dimethylammonio)-propanesulfonate, reference compound] | 1.02 wt % | – | – | – | – | – | – | – | – | – | – | – | – | –
3 | CCCCCCCCCCCCOC(=O)CCC[N+](C)(C)CCCS(=O)(=O)[O-] [Example 5, 3-(3-(Lauryloxycarbonylpropyl)dimethylammonio)-propanesulfonate] | greater than or equal to 33 wt % | 157 mm | 154 mm | 151 mm | 149 mm | 147 mm | 146 mm | 170 mm | 166 mm | 161 mm | 158 mm | 154 mm | 152 mm | 53.9 mg/L
4 | CCCCCCCCCCCCNC(=O)CCC[N+](C)(C)CC(O)CS(=O)(=O)[O-] (centres unmarked) [Example 12, 3-((4-laurylamino-4-oxobutyl)dimethylammonio)-2-hydroxy-propanesulfonate] | – | 160 mm | 157 mm | 155 mm | 153 mm | 151 mm | 150 mm | 182 mm | 180 mm | 178 mm | 177 mm | 176 mm | 175 mm | 80.9 mg/L
5 | CCCCCCCCCCCCNC(=O)CCCC[N+](C)(C)CC(O)CS(=O)(=O)[O-] (centres unmarked) [Example 21, 3-((5-laurylamino-5-oxopentyl)dimethylammonio)-2-hydroxypropanesulfonate] | – | 157 mm | 156 mm | 153 mm | 151 mm | 149 mm | 147 mm | 173 mm | 171 mm | 170 mm | 170 mm | 170 mm | 169 mm | 104.5 mg/L
6 | CCCCCCCCCCCC[N+](C)(C)CCCS(=O)(=O)[O-] [N-lauryl-N,N-dimethyl-3-ammonio-1-propanesulfonate, reference compound] | – | – | – | – | – | – | – | – | – | – | – | – | – | 962 mg/L
7 | (3-Lauryloxycarbonylpropyl)dimethylammonioacetate [Example 3] | – | 171 mm | 170 mm | 170 mm | 169 mm | 169 mm | 169 mm | 165 mm | 162 mm | 160 mm | 158 mm | 158 mm | 156 mm | 24.2 mg/L
8 | (4-Laurylamino-4-oxobutyl)dimethylammonioacetate [Example 11] | – | 174 mm | 172 mm | 171 mm | 171 mm | 170 mm | 170 mm | 182 mm | 180 mm | 179 mm | 178 mm | 178 mm | 177 mm | 76.5 mg/L
9 | cocamidopropyl betaine [reference compound] | – | 160 mm | 159 mm | 158 mm | 158 mm | 158 mm | 158 mm | 174 mm | 172 mm | 171 mm | 171 mm | 170 mm | 170 mm | 12.7 mg/L
10 | cocamidopropyl hydroxysultaine [reference compound] | – | – | – | – | – | – | – | – | – | – | – | – | – | 9.5 mg/L
